According to ChEMBL document CHEMBL5365424, “Development of a highly potent and selective degrader of LRRK2” (Bioorg Med Chem Lett, 2023):
The source made the active and inactive calls. The calls are words filed in the database; no cut-off is given here.

How the values were obtained:
[1] = target: T1, Leucine-rich repeat serine/threonine-protein kinase 2 (Homo sapiens, UniProt Q5S007); test: Inhibition of recombinant human GST-tagged LRRK2 (970 to 2527 residues) expressed in insect cells using LRRKtide as substrate measured after 1 hr by Adapta TR-FRET assay; parameters: species or system Insect cell
T1 sequence (Q5S007 whole entry, the tested form may be a part): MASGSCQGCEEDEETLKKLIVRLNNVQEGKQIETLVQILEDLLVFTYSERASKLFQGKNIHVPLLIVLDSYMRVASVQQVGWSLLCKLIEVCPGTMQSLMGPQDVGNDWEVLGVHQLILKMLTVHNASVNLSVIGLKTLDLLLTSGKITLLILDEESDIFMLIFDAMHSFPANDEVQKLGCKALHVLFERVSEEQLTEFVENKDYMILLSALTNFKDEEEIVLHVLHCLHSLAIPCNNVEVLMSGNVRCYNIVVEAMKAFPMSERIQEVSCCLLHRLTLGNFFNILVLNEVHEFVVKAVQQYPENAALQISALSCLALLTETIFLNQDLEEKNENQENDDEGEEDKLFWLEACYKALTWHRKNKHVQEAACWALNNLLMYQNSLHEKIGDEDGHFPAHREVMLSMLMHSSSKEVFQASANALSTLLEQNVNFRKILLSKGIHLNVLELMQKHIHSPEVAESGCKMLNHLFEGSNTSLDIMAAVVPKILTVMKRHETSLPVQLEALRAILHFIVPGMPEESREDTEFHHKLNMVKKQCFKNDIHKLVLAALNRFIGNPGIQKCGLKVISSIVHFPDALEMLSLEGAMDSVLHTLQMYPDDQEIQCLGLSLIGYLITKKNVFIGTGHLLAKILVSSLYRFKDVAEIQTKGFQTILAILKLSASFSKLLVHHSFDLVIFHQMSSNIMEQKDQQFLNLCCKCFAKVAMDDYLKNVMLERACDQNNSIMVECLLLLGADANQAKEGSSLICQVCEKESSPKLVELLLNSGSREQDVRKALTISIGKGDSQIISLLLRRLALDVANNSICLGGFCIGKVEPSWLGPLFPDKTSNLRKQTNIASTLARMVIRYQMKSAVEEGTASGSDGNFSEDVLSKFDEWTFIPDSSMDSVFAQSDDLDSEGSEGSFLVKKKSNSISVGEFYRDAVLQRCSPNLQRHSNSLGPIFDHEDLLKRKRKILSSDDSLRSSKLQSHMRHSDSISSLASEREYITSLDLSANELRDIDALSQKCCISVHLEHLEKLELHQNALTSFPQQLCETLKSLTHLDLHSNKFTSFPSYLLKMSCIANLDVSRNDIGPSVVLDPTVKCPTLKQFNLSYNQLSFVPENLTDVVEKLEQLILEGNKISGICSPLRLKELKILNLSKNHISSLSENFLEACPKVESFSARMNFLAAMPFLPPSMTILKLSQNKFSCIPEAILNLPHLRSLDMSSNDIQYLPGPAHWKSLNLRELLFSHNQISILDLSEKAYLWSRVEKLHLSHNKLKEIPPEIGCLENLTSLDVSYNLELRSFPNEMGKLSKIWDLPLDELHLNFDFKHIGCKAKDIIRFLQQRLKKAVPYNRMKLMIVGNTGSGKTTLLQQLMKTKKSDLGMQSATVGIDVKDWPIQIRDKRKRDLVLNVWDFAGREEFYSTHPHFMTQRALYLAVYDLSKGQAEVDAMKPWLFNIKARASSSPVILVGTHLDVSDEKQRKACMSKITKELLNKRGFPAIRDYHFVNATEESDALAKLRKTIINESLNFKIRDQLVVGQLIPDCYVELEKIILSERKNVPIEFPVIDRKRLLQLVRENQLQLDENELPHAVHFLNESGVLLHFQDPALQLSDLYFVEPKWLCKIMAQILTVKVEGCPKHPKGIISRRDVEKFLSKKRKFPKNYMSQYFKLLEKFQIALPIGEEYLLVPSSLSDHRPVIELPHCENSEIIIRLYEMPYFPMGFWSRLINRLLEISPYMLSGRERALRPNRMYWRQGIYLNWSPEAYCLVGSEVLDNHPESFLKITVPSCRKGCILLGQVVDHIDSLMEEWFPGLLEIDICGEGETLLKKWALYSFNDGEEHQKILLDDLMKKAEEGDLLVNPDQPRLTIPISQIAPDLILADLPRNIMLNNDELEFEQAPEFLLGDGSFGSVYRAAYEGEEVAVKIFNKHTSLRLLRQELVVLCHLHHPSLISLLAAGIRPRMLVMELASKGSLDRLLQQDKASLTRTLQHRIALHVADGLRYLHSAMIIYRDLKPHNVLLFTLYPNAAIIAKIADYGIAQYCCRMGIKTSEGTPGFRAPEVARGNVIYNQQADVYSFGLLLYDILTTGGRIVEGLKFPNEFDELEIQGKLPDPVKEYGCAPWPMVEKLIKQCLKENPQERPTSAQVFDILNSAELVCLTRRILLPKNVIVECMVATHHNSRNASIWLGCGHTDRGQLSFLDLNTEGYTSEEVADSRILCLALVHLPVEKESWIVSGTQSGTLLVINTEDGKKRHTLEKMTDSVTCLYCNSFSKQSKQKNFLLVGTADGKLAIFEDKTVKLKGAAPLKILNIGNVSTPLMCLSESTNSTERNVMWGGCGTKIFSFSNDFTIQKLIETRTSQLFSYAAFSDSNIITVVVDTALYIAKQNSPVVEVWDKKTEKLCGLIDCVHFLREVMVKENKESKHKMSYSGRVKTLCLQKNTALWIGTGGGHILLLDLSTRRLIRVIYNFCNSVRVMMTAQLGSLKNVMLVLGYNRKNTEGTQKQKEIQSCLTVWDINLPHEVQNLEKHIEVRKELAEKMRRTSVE

[2] = target: Leucine-rich repeat serine/threonine-protein kinase 2 (Homo sapiens, UniProt Q5S007, G2019S); test: Inhibition of recombinant human GST-tagged LRRK2 G2019S mutant (970 to 2527 residues) expressed in insect cells using LRRKtide as substrate measured after 1 hr by Adapta TR-FRET assay; parameters: species or system Insect cell
Chain of Leucine-rich repeat serine/threonine-protein kinase 2 (Homo sapiens, UniProt Q5S007, G2019S) (Q5S007 whole entry G2019S, the tested form may be a part): as the sequence (Q5S007 whole entry, the tested form may be a part) above, with G2019S counted along it

[3] = target: Leucine-rich repeat serine/threonine-protein kinase 2 (Mus musculus) (UniProt Q5S006); test: Induction of LRRK2 degradation in MEF cells by Western blot analysis; assay type: cell-based
[4] = target: T2, Protein cereblon/Cyclin-G-associated kinase (Mus musculus) (UniProt Q8C7D2+Q99KY4); test: Induction of GAK degradation in MEF cells at 1 uM measured after 48 hrs by Western blot analysis; assay type: cell-based
T2 sequence (Q8C7D2 whole entry, looked up): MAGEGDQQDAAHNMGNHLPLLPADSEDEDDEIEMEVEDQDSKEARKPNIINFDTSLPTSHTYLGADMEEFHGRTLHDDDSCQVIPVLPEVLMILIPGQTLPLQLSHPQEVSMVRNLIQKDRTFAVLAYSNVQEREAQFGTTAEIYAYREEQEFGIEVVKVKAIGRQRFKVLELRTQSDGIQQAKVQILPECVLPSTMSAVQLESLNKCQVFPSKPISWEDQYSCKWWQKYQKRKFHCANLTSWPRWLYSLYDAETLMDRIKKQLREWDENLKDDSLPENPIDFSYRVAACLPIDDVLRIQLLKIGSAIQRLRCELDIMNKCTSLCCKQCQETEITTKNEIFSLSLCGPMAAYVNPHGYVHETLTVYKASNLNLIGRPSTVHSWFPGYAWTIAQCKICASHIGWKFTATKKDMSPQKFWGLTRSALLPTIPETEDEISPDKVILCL
T2 sequence (Q99KY4 whole entry, looked up): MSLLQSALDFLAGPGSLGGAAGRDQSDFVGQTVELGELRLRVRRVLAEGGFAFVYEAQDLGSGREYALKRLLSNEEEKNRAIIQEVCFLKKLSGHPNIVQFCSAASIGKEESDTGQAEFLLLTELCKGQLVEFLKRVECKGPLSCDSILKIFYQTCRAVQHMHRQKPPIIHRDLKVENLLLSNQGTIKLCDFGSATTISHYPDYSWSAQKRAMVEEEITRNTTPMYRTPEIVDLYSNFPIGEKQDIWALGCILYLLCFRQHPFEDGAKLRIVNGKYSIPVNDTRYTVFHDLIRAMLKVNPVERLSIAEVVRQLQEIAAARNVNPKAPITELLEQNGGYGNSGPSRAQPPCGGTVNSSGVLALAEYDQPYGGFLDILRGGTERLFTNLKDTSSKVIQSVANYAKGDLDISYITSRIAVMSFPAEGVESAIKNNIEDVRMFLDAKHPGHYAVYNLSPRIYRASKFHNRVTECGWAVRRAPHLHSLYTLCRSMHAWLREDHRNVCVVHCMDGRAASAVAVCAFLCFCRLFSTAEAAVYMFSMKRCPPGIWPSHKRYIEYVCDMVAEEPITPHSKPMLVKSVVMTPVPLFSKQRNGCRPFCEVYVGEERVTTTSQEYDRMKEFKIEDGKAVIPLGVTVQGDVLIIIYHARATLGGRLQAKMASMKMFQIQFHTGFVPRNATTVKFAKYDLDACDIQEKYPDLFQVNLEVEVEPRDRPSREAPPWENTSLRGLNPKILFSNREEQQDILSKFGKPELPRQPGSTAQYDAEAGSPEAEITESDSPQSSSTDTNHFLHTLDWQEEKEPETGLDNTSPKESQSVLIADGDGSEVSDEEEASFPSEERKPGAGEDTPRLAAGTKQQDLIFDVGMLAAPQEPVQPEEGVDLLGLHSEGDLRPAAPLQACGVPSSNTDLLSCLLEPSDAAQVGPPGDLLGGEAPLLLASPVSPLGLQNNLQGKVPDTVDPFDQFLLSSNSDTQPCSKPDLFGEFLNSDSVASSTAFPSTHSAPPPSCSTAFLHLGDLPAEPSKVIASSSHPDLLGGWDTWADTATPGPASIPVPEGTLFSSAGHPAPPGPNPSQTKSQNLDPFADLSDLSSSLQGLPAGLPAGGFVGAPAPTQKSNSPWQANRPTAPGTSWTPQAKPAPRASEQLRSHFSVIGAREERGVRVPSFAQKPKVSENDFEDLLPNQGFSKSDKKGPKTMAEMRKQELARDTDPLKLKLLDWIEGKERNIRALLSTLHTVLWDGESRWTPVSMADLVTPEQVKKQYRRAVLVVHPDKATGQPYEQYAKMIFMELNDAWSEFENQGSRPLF

[5] = target: T3, Protein cereblon/Leucine-rich repeat serine/threonine-protein kinase 2 (Mus musculus) (UniProt Q5S006+Q8C7D2); test: Protac activity at CRBN/LRRK2 in MEF cells assessed as induction of LRRK2 degradation at 10 to 1000 nM incubated for 1 to 48 hrs by Western blot analysis; assay type: cell-based; details: dose 10-1000 nM, time 1-48 hrs
[6] = target: Leucine-rich repeat serine/threonine-protein kinase 2 (Mus musculus) (UniProt Q5S006); test: Induction of LRRK2 degradation in MEF cells at 100 nM measured after 2 hrs by Western blot analysis; assay type: cell-based
[7] = test system: von Hippel-Lindau disease tumor suppressor/Leucine-rich repeat serine/threonine-protein kinase 2 (Mus musculus), Q5S006+P40338 [R1441C]; test: Protac activity at VHL/LRRK2 R1441C mutant in MEF cells assessed as induction of LRRK2 degradation incubated for 48 hrs by Western blot analysis; assay type: cell-based
[8] = target: von Hippel-Lindau disease tumor suppressor/Leucine-rich repeat serine/threonine-protein kinase 2 (Mus musculus) (UniProt Q5S006+P40338); test: Protac activity at VHL/LRRK2 in MEF cells assessed as induction of LRRK2 degradation measured after 48 hrs by Western blot analysis; assay type: cell-based
[9] = target: Leucine-rich repeat serine/threonine-protein kinase 2 (Mus musculus) (UniProt Q5S006); test: Inhibition of LRRK2 in MEF cells assessed as reduction in pS935 phosphorylation measured after 24 to 48 hrs by Western blot analysis; assay type: cell-based; details: time 24-48 hrs
[10] = target: T3, Protein cereblon/Leucine-rich repeat serine/threonine-protein kinase 2 (Mus musculus); test: Protac activity at CRBN/LRRK2 in MEF cells assessed as induction of LRRK2 degradation at 1000 nM incubated for 48 hrs by Western blot analysis; assay type: cell-based
[11] = target: T3, Protein cereblon/Leucine-rich repeat serine/threonine-protein kinase 2 (Mus musculus); test: Protac activity at CRBN/LRRK2 in MEF cells assessed as induction of LRRK2 degradation at 1 uM incubated for 48 hrs in the presence of MLi-2 by Western blot analysis; assay type: cell-based
[12] = test system: Protein cereblon/Leucine-rich repeat serine/threonine-protein kinase 2 (Mus musculus), Q5S006+Q8C7D2 [R1441C]; test: Protac activity at CRBN/LRRK2 R1441C mutant in MEF cells assessed as induction of LRRK2 degradation at 1 uM incubated for 48 hrs in presence of MLi-2 by Western blot analysis; assay type: cell-based
[13] = target: T3, Protein cereblon/Leucine-rich repeat serine/threonine-protein kinase 2 (Mus musculus); test: Protac activity at CRBN/LRRK2 in MEF cells assessed as induction of LRRK2 degradation at 1 uM incubated for 48 hrs in presence of cereblon degrader ZXH-03-153 by Western blot analysis; assay type: cell-based
[14] = test system: Protein cereblon/Leucine-rich repeat serine/threonine-protein kinase 2 (Mus musculus), Q5S006+Q8C7D2 [R1441C]; test: Protac activity at CRBN/LRRK2 R1441C mutant in MEF cells assessed as induction of LRRK2 degradation at 1 uM incubated for 48 hrs in presence of cereblon degrader ZXH-03-153 by Western blot analysis; assay type: cell-based
[15] = target: T1, Leucine-rich repeat serine/threonine-protein kinase 2; test: Inhibition of human wild-type partial length LRRK2 (H970 to E2527 residues) expressed in mammalian expression system at 1 uM by Kinomescan assay relative to control
[16] = test system: Protein cereblon/Leucine-rich repeat serine/threonine-protein kinase 2 (Mus musculus), Q5S006+Q8C7D2 [R1441C]; test: Protac activity at CRBN/LRRK2 R1441C mutant in MEF cells assessed as induction of LRRK2 degradation at 1 uM incubated for 48 hrs by Western blot analysis; assay type: cell-based
[17] = target: T3, Protein cereblon/Leucine-rich repeat serine/threonine-protein kinase 2 (Mus musculus); test: Protac activity at CRBN/LRRK2 in MEF cells assessed as induction of LRRK2 degradation at 1 uM incubated for 48 hrs by Western blot analysis; assay type: cell-based
[18] = target: Protein cereblon/Leucine-rich repeat serine/threonine-protein kinase 2 (Homo sapiens) (UniProt Q5S007+Q96SW2); test: Protac activity at CRBN/LRRK2 in human MOLT-4 cells assessed as induction of LRRK2 degradation at 1 uM by proteomic analysis; assay type: cell-based
Chain of Protein cereblon/Leucine-rich repeat serine/threonine-protein kinase 2 (Homo sapiens) (Q5S007 whole entry, looked up): as the sequence (Q5S007 whole entry, the tested form may be a part) above
Chain of Protein cereblon/Leucine-rich repeat serine/threonine-protein kinase 2 (Homo sapiens) (Q96SW2 whole entry, looked up): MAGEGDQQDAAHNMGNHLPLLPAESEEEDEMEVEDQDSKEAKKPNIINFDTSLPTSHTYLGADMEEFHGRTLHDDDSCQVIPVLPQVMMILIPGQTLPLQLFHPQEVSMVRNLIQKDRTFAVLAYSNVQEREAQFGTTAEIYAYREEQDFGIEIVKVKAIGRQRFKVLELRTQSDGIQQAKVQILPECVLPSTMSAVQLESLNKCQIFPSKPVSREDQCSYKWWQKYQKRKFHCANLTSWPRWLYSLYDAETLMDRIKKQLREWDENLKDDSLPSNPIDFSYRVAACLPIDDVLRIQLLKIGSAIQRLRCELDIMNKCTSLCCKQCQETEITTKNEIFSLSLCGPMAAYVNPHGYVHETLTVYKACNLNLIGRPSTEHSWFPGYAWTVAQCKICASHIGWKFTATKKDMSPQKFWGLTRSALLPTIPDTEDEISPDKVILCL

[19] = target: Cereblon/Ikaros (Homo sapiens) (UniProt Q96SW2+Q13422); test: Protac activity at CRBN/IKZF1 in human MOLT-4 cells assessed as induction of IKZF1 degradation at 1 uM by proteomic analysis; assay type: cell-based
[20] = target: Protein cereblon/Zinc finger protein Aiolos (Homo sapiens) (UniProt Q96SW2+Q9UKT9); test: Protac activity at CRBN/IKZF3 in human MOLT-4 cells assessed as induction of IKZF3 degradation at 1 uM by proteomic analysis; assay type: cell-based
[21] = target: Protein cereblon/E3 ubiquitin-protein ligase ZFP91 (Homo sapiens) (UniProt Q96SW2+Q96JP5); test: Protac activity at CRBN/ZFP91 in human MOLT-4 cells assessed as induction of ZFP91 degradation at 1 uM by proteomic analysis; assay type: cell-based
[22] = target: Protein cereblon/Cyclin-G-associated kinase (Homo sapiens) (UniProt O14976+Q96SW2); test: Protac activity at CRBN/GAK in human MOLT-4 cells assessed as induction of GAK degradation at 1 uM by proteomic analysis; assay type: cell-based
[23] = target: T2, Protein cereblon/Cyclin-G-associated kinase (Mus musculus); test: Protac activity at CRBN/GAK in MEF cells assessed as induction of GAK degradation at 1 uM measured after 48 hrs by Western blot analysis; assay type: cell-based
[24] = target: T2, Protein cereblon/Cyclin-G-associated kinase (Mus musculus); test: Protac activity at CRBN/GAK in LRRK2 knockout MEF cells assessed as induction of GAK degradation at 1 uM measured after 48 hrs by Western blot analysis; assay type: cell-based
[25] = target: Leucine-rich repeat serine/threonine-protein kinase 2 (Mus musculus) (UniProt Q5S006); test: Inhibition of LRRK2 in MEF cells assessed as reduction in pS935 phosphorylation at 10 to 1000 nM measured after 24 to 48 hrs by Western blot analysis; assay type: cell-based; details: dose 10-1000 nM, time 24-48 hrs
[26] = target: Leucine-rich repeat serine/threonine-protein kinase 2 (Mus musculus) (UniProt Q5S006); test: Inhibition of LRRK2 in MEF cells assessed as reduction in Rab10 phosphorylation at 10 to 1000 nM measured after 24 to 48 hrs by Western blot analysis; assay type: cell-based; details: dose 10-1000 nM, time 24-48 hrs
[27] = test system: Leucine-rich repeat serine/threonine-protein kinase 2 (Homo sapiens), Q5S007 [G2019S]; test: Inhibition of human partial length LRRK2 G2019S mutant (H970 to E2527 residues) expressed in mammalian expression system at 1 uM by Kinomescan assay relative to control
Chain of Leucine-rich repeat serine/threonine-protein kinase 2 (Homo sapiens), Q5S007 [G2019S] (Q5S007 whole entry G2019S, the tested form may be a part): as the sequence (Q5S007 whole entry, the tested form may be a part) above, with G2019S counted along it

## Cc1ncsc1-c1ccc([C@H](C)NC(=O)[C@@H]2C[C@@H](O)CN2C(=O)[C@@H](NC(=O)CCOCCOCCOCCOCCC(=O)N2CCN(c3cc(-c4n[nH]c5ccc(OC6(C)CC6)cc45)ncn3)CC2)C(C)(C)C)cc1
[1]
  IC50: 3 nM
[2]
  IC50: 4 nM

## C[C@@H]1CN(c2cc(-c3n[nH]c4ccc(OC5(C)CC5)cc34)ncn2)C[C@H](C)O1
[3]
  Activity: inactive
[4]
  Activity: inactive

## CC1(Oc2ccc3[nH]nc(-c4cc(N5CCN(C(=O)CCOCCNc6cccc7c6C(=O)N(C6CCC(=O)NC6=O)C7=O)CC5)ncn4)c3c2)CC1 (stereo not drawn)
[1]
  IC50: 2 nM
[2]
  IC50: 1 nM
[5]
  Activity: Active

## CC1(Oc2ccc3[nH]nc(-c4cc(N5CCN(C(=O)CCOCCOCCOCCOCCNc6cccc7c6C(=O)N(C6CCC(=O)NC6=O)C7)CC5)ncn4)c3c2)CC1 (stereo not drawn)
[1]
  IC50: 3 nM
[2]
  IC50: 3 nM
[5]
  Activity: Active

## Cc1ncsc1-c1ccc([C@@H](C)NC(=O)[C@H]2C[C@H](O)CN2C(=O)[C@H](NC(=O)CCOCCOCCOCCC(=O)N2CCN(c3cc(-c4n[nH]c5ccc(OC6(C)CC6)cc45)ncn3)CC2)C(C)(C)C)cc1
[1]
  IC50: 6 nM
[2]
  IC50: 7 nM

## CC1(Oc2ccc3[nH]nc(-c4cc(N5CCN(C(=O)CCOCCNc6cccc7c6C(=O)N(C6CCC(=O)NC6=O)C7)CC5)ncn4)c3c2)CC1 (stereo not drawn)
[1]
  IC50: 3 nM
[2]
  IC50: 2 nM
[5]
  Activity: Active

## O=C1CCC(N2C(=O)c3cccc(NCCCCCNc4cccc5c4C(=O)N(C4CCC(=O)NC4=O)C5=O)c3C2=O)C(=O)N1 (stereo not drawn)
[6]
  Activity: Active

## CC1(Oc2ccc3[nH]nc(-c4cc(N5CCN(C(=O)CCOCCOCCNc6cccc7c6C(=O)N(C6CCCNC6=O)C7=O)CC5)ncn4)c3c2)CC1 (stereo not drawn)
[1]
  IC50: 2 nM
[2]
  IC50: 2 nM
[7]
  Activity: inactive
[8]
  Activity: inactive
[9]
  inhibition: Active

## CC1(Oc2ccc3[nH]nc(-c4cc(N5CCN(C(=O)CCOCCOCCNc6cccc7c6C(=O)N(C6CCC(=O)NC6=O)C7=O)CC5)ncn4)c3c2)CC1 (stereo not drawn)
[1]
  IC50: 1 nM
[2]
  IC50: 1 nM
[10]
  Activity: Active

## CC1(Oc2ccc3[nH]nc(-c4cc(N5CCN(C(=O)CCOCCOCCNc6cccc7c6C(=O)N(C6CCC(=O)NC6=O)C7)CC5)ncn4)c3c2)CC1 (stereo not drawn)
[1]
  IC50: 3 nM
[2]
  IC50: 2 nM
[5]
  Activity: Active

## Nc1cccc2c1CN(C1CCC(=O)NC1=O)C2=O (stereo not drawn)
[5]
  Activity: Active

## CC1(Oc2ccc3[nH]nc(-c4cc(N5CCN(C(=O)CCOCCOCCOCCOCCNc6cccc7c6C(=O)N(C6CCC(=O)NC6=O)C7=O)CC5)ncn4)c3c2)CC1 (stereo not drawn)
[1]
  IC50: 1 nM
[2]
  IC50: 1 nM
[10]
  Activity: Active
[11]
  Activity: inactive
[12]
  Activity: inactive
[13]
  Activity: inactive
[14]
  Activity: inactive
[15]
  inhibition: > 85%
[16]
  Activity: Active
[17]
  Activity: Active
[18]
  Activity: Active
[19]
  Activity: Active
[20]
  Activity: Active
[21]
  Activity: Active
[22]
  Activity: Active
[23]
  Activity: Active
[24]
  Activity: Active
[25]
  inhibition: Active
[26]
  inhibition: Active
[27]
  inhibition: > 85%
